The text below walks through data of US9181305B2, “Exendin-4 peptide analogues” (SANOFI, priority 2012, dated 2015).

*1 amine or outer side, *2 acyl side, *3 side chain or, on linkers, in order; H or OH if unused. Where a SMILES comes first, the peptide text is derived from it. Side-chain parts run from the residue outwards. [ ]: non-standard residue; d: D form. The star is where a group is joined. γGlu = O=C(O)[C@H](CCC(=O)[*:2])N[*:1]; Palmitoyl = CCCCCCCCCCCCCCCC(=O)*; Aib = CC(C)(N)C(=O)O; GABA = NCCCC(=O)O; βAla = NCCC(=O)O

T1 sequence (P43220 24-463): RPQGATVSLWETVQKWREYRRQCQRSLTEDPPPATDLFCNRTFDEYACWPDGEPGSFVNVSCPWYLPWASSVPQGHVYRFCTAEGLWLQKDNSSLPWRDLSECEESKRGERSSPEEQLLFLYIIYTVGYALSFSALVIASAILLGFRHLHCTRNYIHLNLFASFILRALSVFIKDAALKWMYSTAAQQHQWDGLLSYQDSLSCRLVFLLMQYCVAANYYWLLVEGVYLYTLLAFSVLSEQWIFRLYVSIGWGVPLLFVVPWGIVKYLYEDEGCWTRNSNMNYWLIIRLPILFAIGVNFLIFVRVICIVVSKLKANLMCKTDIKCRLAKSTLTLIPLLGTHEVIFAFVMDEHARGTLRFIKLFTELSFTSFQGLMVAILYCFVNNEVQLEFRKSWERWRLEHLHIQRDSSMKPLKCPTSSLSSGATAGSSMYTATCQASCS

This assay concerns the target T1, human GLP-1 receptor (hGLP-1 R) (Homo sapiens, UniProt P43220).
T1 construct: expressed in transfected cells; host or cells: HEK-293
Description: cAMP response (HTRF) of HEK-293 cells stably expressing human GLP-1 receptor. Type of assay: cell-based. As to conditions: HEK-293 cells expressing human GLP-1 receptor, cAMP formation. As to the method: cAMP content of cells was determined using a kit from Cisbio Corp. (cat. no. 62AM4PEC) based on HTRF (Homogenous Time Resolved Fluorescence). For preparation, cells were split into T175 culture flasks and grown overnight to near confluency in medium (DMEM/10% FBS). Medium was then removed and cells washed with PBS lacking calcium and magnesium, followed by proteinase treatment with accutase (Sigma-Aldrich cat. no. A6964). Detached cells were washed and resuspended in assay buffer (1×HBSS; 20 mM HEPES, 0.1% BSA, 2 mM IBMX) and cellular density determined. […] For measurement, 25 μl of test compound in assay buffer was added to the wells, followed by incubation for 30 minutes at room temperature.
Molecule `CCCCCCCCCCCCCCCC(=O)NCCC(=O)NCCC(=O)NCCCC[C@H](NC(=O)[C@H](CO)NC(=O)[C@@H]1CCCN1C(=O)[C@@H]1CCCN1C(=O)[C@@H]1CCCN1C(=O)[C@H](C)NC(=O)CNC(=O)[C@H](CO)NC(=O)[C@H](CO)NC(=O)[C@@H]1CCCN1C(=O)CNC(=O)CNC(=O)[C@H](CO)NC(=O)[C@H](CCCCN)NC(=O)[C@H](CC(C)C)NC(=O)[C@H](Cc1c[nH]c2ccccc12)NC(=O)[C@H](CCC(=O)O)NC(=O)[C@@H](NC(=O)[C@H](Cc1ccccc1)NC(=O)[C@H](CC(=O)O)NC(=O)[C@H](CCC(N)=O)NC(=O)[C@H](C)NC(=O)[C@H](CCCNC(=N)N)NC(=O)[C@H](CCCNC(=N)N)NC(=O)[C@H](CO)NC(=O)[C@H](CCC(=O)O)NC(=O)[C@H](CCSC)NC(=O)[C@H](CCC(N)=O)NC(=O)[C@H](CCCCN)NC(=O)[C@H](CO)NC(=O)[C@H](CC(C)C)NC(=O)[C@H](CC(=O)O)NC(=O)[C@H](CO)NC(=O)[C@@H](NC(=O)[C@H](Cc1ccccc1)NC(=O)[C@@H](NC(=O)CNC(=O)[C@H](CCC(N)=O)NC(=O)[C@@H](CO)NC(=O)[C@@H](N)Cc1c[nH]cn1)[C@@H](C)O)[C@@H](C)O)[C@@H](C)CC)C(N)=O` [(98)] (H-H[dS]QGTFTSDLSKQMESRRAQDFIEWLKSGGPSSGAPPPSK([βAla-βAla-Palmitoyl])-NH2) had an EC50 of 5.1 pM.

Turning to `CCCCCCCCCCCCCCCC(=O)N[C@@H](CCC(=O)NCCCC[C@H](NC(=O)[C@H](CO)NC(=O)[C@@H]1CCCN1C(=O)[C@@H]1CCCN1C(=O)[C@@H]1CCCN1C(=O)[C@H](C)NC(=O)CNC(=O)[C@H](CO)NC(=O)[C@H](CO)NC(=O)[C@@H]1CCCN1C(=O)CNC(=O)CNC(=O)[C@H](CO)NC(=O)[C@H](CCCCN)NC(=O)[C@H](CC(C)C)NC(=O)[C@H](Cc1c[nH]c2ccccc12)NC(=O)[C@H](CCC(=O)O)NC(=O)[C@@H](NC(=O)[C@H](Cc1ccccc1)NC(=O)[C@H](CC(=O)O)NC(=O)[C@H](CCC(N)=O)NC(=O)[C@H](C)NC(=O)[C@H](C)NC(=O)[C@H](CCCNC(=N)N)NC(=O)[C@H](CO)NC(=O)[C@H](CCC(=O)O)NC(=O)[C@H](CCSC)NC(=O)[C@H](CCC(N)=O)NC(=O)[C@H](CCCCN)NC(=O)[C@H](CO)NC(=O)[C@H](CC(C)C)NC(=O)[C@H](CC(=O)O)NC(=O)[C@H](CO)NC(=O)[C@@H](NC(=O)[C@H](Cc1ccccc1)NC(=O)[C@@H](NC(=O)CNC(=O)[C@H](CCC(N)=O)NC(=O)[C@@H](CO)NC(=O)[C@@H](N)Cc1c[nH]cn1)[C@@H](C)O)[C@@H](C)O)[C@@H](C)CC)C(N)=O)C(=O)O` [(103)] (H-H[dS]QGTFTSDLSKQMESRAAQDFIEWLKSGGPSSGAPPPSK([γGlu-Palmitoyl])-NH2), the EC50 was found to be 3.7 pM.

Take `CCCCCCCCCCCCCCCC(=O)N[C@@H](CCC(=O)NCCCC[C@H](NC(=O)[C@H](CO)NC(=O)[C@@H]1CCCN1C(=O)[C@@H]1CCCN1C(=O)[C@@H]1CCCN1C(=O)[C@H](C)NC(=O)CNC(=O)[C@H](CO)NC(=O)[C@H](CO)NC(=O)[C@@H]1CCCN1C(=O)CNC(=O)CNC(=O)[C@H](C)NC(=O)[C@H](CCCCN)NC(=O)[C@H](CC(C)C)NC(=O)[C@H](Cc1c[nH]c2ccccc12)NC(=O)[C@H](CCC(=O)O)NC(=O)[C@@H](NC(=O)[C@H](Cc1ccccc1)NC(=O)[C@H](CC(=O)O)NC(=O)[C@H](CCCCN)NC(=O)[C@H](C)NC(=O)[C@H](C)NC(=O)[C@H](CCC(=O)O)NC(=O)[C@H](CCC(=O)O)NC(=O)[C@H](CCC(=O)O)NC(=O)[C@H](CCSC)NC(=O)[C@H](CCC(N)=O)NC(=O)[C@H](CCCCN)NC(=O)[C@H](CO)NC(=O)[C@H](CC(C)C)NC(=O)[C@H](CC(=O)O)NC(=O)[C@H](CO)NC(=O)[C@@H](NC(=O)[C@H](Cc1ccccc1)NC(=O)[C@@H](NC(=O)CNC(=O)[C@H](CCC(N)=O)NC(=O)[C@@H](CO)NC(=O)[C@@H](N)Cc1c[nH]cn1)[C@@H](C)O)[C@@H](C)O)[C@@H](C)CC)C(N)=O)C(=O)O` [(110)] (H-H[dS]QGTFTSDLSKQMEEEAAKDFIEWLKAGGPSSGAPPPSK([γGlu-Palmitoyl])-NH2): the EC50 was 2.9 pM.

`CCCCCCCCCCCCCCCC(=O)N[C@@H](CCC(=O)NCCCC[C@H](NC(=O)[C@H](CO)NC(=O)[C@@H]1CCCN1C(=O)[C@@H]1CCCN1C(=O)[C@@H]1CCCN1C(=O)[C@H](C)NC(=O)CNC(=O)[C@H](CO)NC(=O)[C@H](CO)NC(=O)[C@@H]1CCCN1C(=O)CNC(=O)CNC(=O)[C@H](C)NC(=O)[C@H](CCCCN)NC(=O)[C@H](CC(C)C)NC(=O)[C@H](Cc1c[nH]c2ccccc12)NC(=O)[C@H](CCC(=O)O)NC(=O)[C@@H](NC(=O)[C@H](Cc1ccccc1)NC(=O)[C@H](CC(=O)O)NC(=O)[C@H](CCC(N)=O)NC(=O)[C@H](C)NC(=O)[C@H](C)NC(=O)C(C)(C)NC(=O)[C@H](CO)NC(=O)[C@H](CCC(=O)O)NC(=O)[C@H](CCSC)NC(=O)[C@H](CCC(N)=O)NC(=O)[C@H](CCCCN)NC(=O)[C@H](CO)NC(=O)[C@H](CC(C)C)NC(=O)[C@H](CC(=O)O)NC(=O)[C@H](CO)NC(=O)[C@@H](NC(=O)[C@H](Cc1ccccc1)NC(=O)[C@@H](NC(=O)CNC(=O)[C@H](CCC(N)=O)NC(=O)[C@@H](CO)NC(=O)[C@@H](N)Cc1c[nH]cn1)[C@@H](C)O)[C@@H](C)O)[C@@H](C)CC)C(N)=O)C(=O)O` [(111)] (H-H[dS]QGTFTSDLSKQMES[Aib]AAQDFIEWLKAGGPSSGAPPPSK([γGlu-Palmitoyl])-NH2) had an EC50 of 4.1 pM.

In the case of `CCCCCCCCCCCCCCCC(=O)N[C@@H](CCC(=O)NCCCC[C@H](NC(=O)[C@H](CO)NC(=O)[C@@H]1CCCN1C(=O)[C@@H]1CCCN1C(=O)[C@@H]1CCCN1C(=O)[C@H](C)NC(=O)CNC(=O)[C@H](CO)NC(=O)[C@H](CO)NC(=O)[C@@H]1CCCN1C(=O)CNC(=O)CNC(=O)[C@H](C)NC(=O)[C@H](CCCCN)NC(=O)[C@H](CC(C)C)NC(=O)[C@H](Cc1c[nH]c2ccccc12)NC(=O)[C@H](CCC(=O)O)NC(=O)[C@@H](NC(=O)[C@H](Cc1ccccc1)NC(=O)[C@H](CC(C)C)NC(=O)[C@H](CCC(N)=O)NC(=O)[C@H](C)NC(=O)[C@H](C)NC(=O)C(C)(C)NC(=O)[C@H](CO)NC(=O)[C@H](CCC(=O)O)NC(=O)[C@H](CCSC)NC(=O)[C@H](CCC(N)=O)NC(=O)[C@H](CCCCN)NC(=O)[C@H](CO)NC(=O)[C@H](CC(C)C)NC(=O)[C@H](CC(=O)O)NC(=O)[C@H](CO)NC(=O)[C@@H](NC(=O)[C@H](Cc1ccccc1)NC(=O)[C@@H](NC(=O)CNC(=O)[C@H](CCC(N)=O)NC(=O)[C@@H](CO)NC(=O)[C@@H](N)Cc1c[nH]cn1)[C@@H](C)O)[C@@H](C)O)[C@@H](C)CC)C(N)=O)C(=O)O` [(112)] (H-H[dS]QGTFTSDLSKQMES[Aib]AAQLFIEWLKAGGPSSGAPPPSK([γGlu-Palmitoyl])-NH2), the EC50 was 9.7 pM.

Consider `CCCCCCCCCCCCCCCC(=O)N[C@@H](CCC(=O)NCCCC[C@H](NC(=O)[C@H](CO)NC(=O)[C@@H]1CCCN1C(=O)[C@@H]1CCCN1C(=O)[C@@H]1CCCN1C(=O)[C@H](C)NC(=O)CNC(=O)[C@H](CO)NC(=O)[C@H](CO)NC(=O)[C@@H]1CCCN1C(=O)CNC(=O)CNC(=O)[C@H](C)NC(=O)[C@H](CCCCN)NC(=O)[C@H](CC(C)C)NC(=O)[C@H](Cc1c[nH]c2ccccc12)NC(=O)[C@H](CCC(=O)O)NC(=O)[C@@H](NC(=O)[C@H](Cc1ccccc1)NC(=O)[C@H](CC(C)C)NC(=O)[C@H](CCC(N)=O)NC(=O)[C@H](C)NC(=O)[C@H](C)NC(=O)[C@H](CCC(=O)O)NC(=O)[C@H](CO)NC(=O)[C@H](CCC(=O)O)NC(=O)[C@H](CCSC)NC(=O)[C@H](CCC(N)=O)NC(=O)[C@H](CCCCN)NC(=O)[C@H](CO)NC(=O)[C@H](CC(C)C)NC(=O)[C@H](CC(=O)O)NC(=O)[C@H](CO)NC(=O)[C@@H](NC(=O)[C@H](Cc1ccccc1)NC(=O)[C@@H](NC(=O)CNC(=O)[C@H](CCC(N)=O)NC(=O)[C@@H](CO)NC(=O)[C@@H](N)Cc1c[nH]cn1)[C@@H](C)O)[C@@H](C)O)[C@@H](C)CC)C(N)=O)C(=O)O` [(114)] (H-H[dS]QGTFTSDLSKQMESEAAQLFIEWLKAGGPSSGAPPPSK([γGlu-Palmitoyl])-NH2), for which the EC50 came out at 3.1 pM.

In turn, `CCCCCCCCCCCCCCCC(=O)NCCCC(=O)NCCCC[C@H](NC(=O)[C@H](CO)NC(=O)[C@@H]1CCCN1C(=O)[C@@H]1CCCN1C(=O)[C@@H]1CCCN1C(=O)[C@H](C)NC(=O)CNC(=O)[C@H](CO)NC(=O)[C@H](CO)NC(=O)[C@@H]1CCCN1C(=O)CNC(=O)CNC(=O)[C@H](CO)NC(=O)[C@H](CCCCN)NC(=O)[C@H](CC(C)C)NC(=O)[C@H](Cc1c[nH]c2ccccc12)NC(=O)[C@H](CCC(=O)O)NC(=O)[C@@H](NC(=O)[C@H](Cc1ccccc1)NC(=O)[C@H](CC(=O)O)NC(=O)[C@H](CCC(N)=O)NC(=O)[C@H](C)NC(=O)[C@H](CCCNC(=N)N)NC(=O)[C@H](CCCNC(=N)N)NC(=O)[C@H](CO)NC(=O)[C@H](CCC(=O)O)NC(=O)[C@H](CCSC)NC(=O)[C@H](CCC(N)=O)NC(=O)[C@H](CCCCN)NC(=O)[C@H](CO)NC(=O)[C@H](CC(C)C)NC(=O)[C@H](CC(=O)O)NC(=O)[C@H](CO)NC(=O)[C@@H](NC(=O)[C@H](Cc1ccccc1)NC(=O)[C@@H](NC(=O)CNC(=O)[C@H](CCC(N)=O)NC(=O)[C@@H](CO)NC(=O)[C@@H](N)Cc1c[nH]cn1)[C@@H](C)O)[C@@H](C)O)[C@@H](C)CC)C(N)=O` [(125)] (H-H[dS]QGTFTSDLSKQMESRRAQDFIEWLKSGGPSSGAPPPSK([GABA-Palmitoyl])-NH2) had an EC50 of 10.8 pM.
